From ChEMBL document CHEMBL1201862, “PubChem BioAssay data set” (2004) come the findings set out here.

SMILES strings stand for the structures. Calls of active or inactive are those of the source. A value given as a limit tells only on which side of the number the result lay.

The target of data set [1] is T1, Alkaline phosphatase, tissue-nonspecific isozyme (Homo sapiens, UniProt P05186).
T1 sequence (P05186 whole entry): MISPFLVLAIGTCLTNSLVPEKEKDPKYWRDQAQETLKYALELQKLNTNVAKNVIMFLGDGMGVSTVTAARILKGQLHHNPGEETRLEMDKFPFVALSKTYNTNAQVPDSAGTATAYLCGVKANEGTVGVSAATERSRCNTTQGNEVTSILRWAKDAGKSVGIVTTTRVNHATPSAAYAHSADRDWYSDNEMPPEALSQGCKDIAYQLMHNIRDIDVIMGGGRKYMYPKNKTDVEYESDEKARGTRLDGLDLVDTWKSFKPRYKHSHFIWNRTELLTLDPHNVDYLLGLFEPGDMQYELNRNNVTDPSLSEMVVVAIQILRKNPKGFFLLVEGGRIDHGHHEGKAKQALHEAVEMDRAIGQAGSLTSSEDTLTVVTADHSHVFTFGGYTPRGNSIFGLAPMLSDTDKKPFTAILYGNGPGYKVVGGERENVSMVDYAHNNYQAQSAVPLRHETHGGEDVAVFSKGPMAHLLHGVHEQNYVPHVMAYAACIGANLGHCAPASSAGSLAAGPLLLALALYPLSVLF
As to the kind of experiment: TNAP enzyme inhibition by screening hits, dose response, selectivity assay for mouse IAP inhibitor project, biochemical, human TNAP, uHTS hits (AID 488906). In kind it is functional.

Data set [2] is described as follows: cytotoxicity toward NIH3T3 fibroblasts, dose response, counter-screen, cell-based, ATP luminescence, mouse fibroblasts (AID 2010).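 Also: cells exposed to compound for about 90 hours before reading.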 It is filed as functional. (In general: Counterscreens check selectivity or assay interference.)
The nature of data set [3]: inhibitors of intracellular T. cruzi replication, confirmation, NIH3T3 host cells, beta-gal luminescence (AID 2044).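 Also: intracellular parasites grown in NIH/3T3 mouse fibroblasts as host cells; luminescent beta-galactosidase reporter signal from transgenic T. cruzi replicating inside host cells; inhibitors lower the luminescence signal.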 In kind it is functional, cell-based.
Data set [4] addresses Intestinal-type alkaline phosphatase (Homo sapiens, UniProt P09923). Nature of the data set: inhibition of human intestinal alkaline phosphatase – biochemical, dose response (AID 488876). It is filed as functional.
Data set [5] concerns the target Intestinal-type alkaline phosphatase (Mus musculus, UniProt P24822). Nature of the data set: PubChem AID 488785. In kind it is functional.
For data set [6], the target named is T2, G-protein coupled receptor 35 (Homo sapiens, UniProt Q9HC97). Nature of the data set: GPR35 antagonists blocking zaprinast-driven arrestin recruitment, primary screen, imaging, U2OS, beta-arrestin-GFP, zaprinast agonist (AID 2058).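 Also: antagonist potency meaning inhibition of agonist-induced arrestin redistribution.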 In kind it is functional. On the technique in general: Arrestin recruitment assays detect the binding of arrestin to an activated receptor.
T2 sequence (Q9HC97 whole entry): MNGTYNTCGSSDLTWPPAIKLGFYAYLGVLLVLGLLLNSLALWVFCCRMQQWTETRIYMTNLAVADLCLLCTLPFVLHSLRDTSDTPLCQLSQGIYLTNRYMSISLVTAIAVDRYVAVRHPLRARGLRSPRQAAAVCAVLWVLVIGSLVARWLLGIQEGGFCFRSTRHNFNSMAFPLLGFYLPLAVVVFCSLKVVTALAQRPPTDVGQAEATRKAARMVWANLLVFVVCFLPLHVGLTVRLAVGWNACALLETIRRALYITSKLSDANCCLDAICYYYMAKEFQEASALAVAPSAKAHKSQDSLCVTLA

The nature of data set [7]: microbe, parasite or virus in culture. It is filed as functional. The following applies: Mycobacterium tuberculosis.
In data set [8] the target is T3, Beta-2 adrenergic receptor (Homo sapiens, UniProt P07550). Nature of the data set: Dose response for HTS for Beta-2AR agonists via FAP method from Powderset3. In kind it is functional.
T3 sequence (P07550 whole entry): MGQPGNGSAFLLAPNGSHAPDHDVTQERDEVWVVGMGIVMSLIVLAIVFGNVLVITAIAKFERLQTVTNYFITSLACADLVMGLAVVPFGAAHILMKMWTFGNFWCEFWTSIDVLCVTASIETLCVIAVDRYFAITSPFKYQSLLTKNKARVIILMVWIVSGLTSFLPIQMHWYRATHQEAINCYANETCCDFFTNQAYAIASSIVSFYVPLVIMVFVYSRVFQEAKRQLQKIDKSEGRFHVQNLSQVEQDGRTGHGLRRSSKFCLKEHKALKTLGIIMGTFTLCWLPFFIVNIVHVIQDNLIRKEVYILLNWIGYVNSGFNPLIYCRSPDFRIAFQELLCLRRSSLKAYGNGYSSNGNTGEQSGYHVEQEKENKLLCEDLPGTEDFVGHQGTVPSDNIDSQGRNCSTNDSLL
Data set [9] deals with G-protein coupled receptor 55 (Homo sapiens, UniProt Q9Y2T6). Nature of the data set: GPR55 antagonists, SAR follow-up, counter-screen for GPR35 antagonist project, imaging, image-based (AID 2397). It is filed as functional.
Data set [10] deals with T2, G-protein coupled receptor 35. Nature of the data set: SAR Analysis for the identification of Selective Antagonists of ERK1/2 Activity in GPR35-Overexpressing U2OS Cells. [Related pubchem assays: 2079, 2058 ]. It is filed as functional, cell-based.
Data set [11] is described as follows: growth suppression of PTEN-null colon cells, dose response, cell-based, HCT116 PTEN knockout (AID 1047).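 Also: HCT116 colon tumor cells with PTEN knocked out; cells exposed to compound for 60 hours before readout; potency for loss of cell viability measured by luminescence.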 It is filed as functional.
The nature of data set [12]: growth suppression of beta-catenin-knockout colon cells, dose response, cell-based, HCT116, human colon tumor (AID 1045).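 Also: HCT116 colon tumor cells with beta catenin knocked out; cells exposed to compound for 60 hours.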 It is filed as functional.
The target of data set [13] is T3, Beta-2 adrenergic receptor. Nature of the data set: beta2AR agonists driving receptor internalization, dose response, cell-based, FAP fluorogen, flow cytometry, cherry pick 1 (AID 588763). It is filed as functional. On the technique in general: In flow cytometry, cells or beads pass a laser one at a time.
A further data set has as its target CAAX prenyl protease 2 (Homo sapiens, UniProt Q9Y256). As to the kind of experiment: human Rce1 protease inhibitors, dose response, biochemical, yeast membranes, quenched-peptide fluorescence, cherry-pick (AID 588849).
The target in another data set is Trypsin (Sus scrofa, UniProt P00761). As to the kind of experiment: porcine trypsin inhibitors, dose response, selectivity assay for Rce1 protease inhibitor project, biochemical, quenched peptide fluorescence, cherry-pick (AID 488789).
In another data set the target is CAAX prenyl protease 1 (Saccharomyces cerevisiae S288c, UniProt P47154). Nature of the data set: Ste24 protease inhibitors, dose response, biochemical, S. cerevisiae, plate reader, cherry-pick (AID 488815).
For data set [14], the target named is FAD-linked sulfhydryl oxidase ALR (Homo sapiens, UniProt P55789). As to the kind of experiment: inhibitors of human ALR sulfhydryl oxidase, dose response, biochemical, H2O2 detection, luminescence, cherry-pick (AID 493248).
FAD-linked sulfhydryl oxidase ALR, sequence (P55789 whole entry): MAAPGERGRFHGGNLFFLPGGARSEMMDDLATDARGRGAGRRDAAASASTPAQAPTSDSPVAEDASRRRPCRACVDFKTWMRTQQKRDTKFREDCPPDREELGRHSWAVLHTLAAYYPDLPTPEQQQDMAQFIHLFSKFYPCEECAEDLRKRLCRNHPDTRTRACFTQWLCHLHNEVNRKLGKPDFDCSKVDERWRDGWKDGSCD
Data set [15] concerns the target T4, Short transient receptor potential channel 4 (Mus musculus, UniProt Q9QUQ5).
T4 sequence (Q9QUQ5 whole entry): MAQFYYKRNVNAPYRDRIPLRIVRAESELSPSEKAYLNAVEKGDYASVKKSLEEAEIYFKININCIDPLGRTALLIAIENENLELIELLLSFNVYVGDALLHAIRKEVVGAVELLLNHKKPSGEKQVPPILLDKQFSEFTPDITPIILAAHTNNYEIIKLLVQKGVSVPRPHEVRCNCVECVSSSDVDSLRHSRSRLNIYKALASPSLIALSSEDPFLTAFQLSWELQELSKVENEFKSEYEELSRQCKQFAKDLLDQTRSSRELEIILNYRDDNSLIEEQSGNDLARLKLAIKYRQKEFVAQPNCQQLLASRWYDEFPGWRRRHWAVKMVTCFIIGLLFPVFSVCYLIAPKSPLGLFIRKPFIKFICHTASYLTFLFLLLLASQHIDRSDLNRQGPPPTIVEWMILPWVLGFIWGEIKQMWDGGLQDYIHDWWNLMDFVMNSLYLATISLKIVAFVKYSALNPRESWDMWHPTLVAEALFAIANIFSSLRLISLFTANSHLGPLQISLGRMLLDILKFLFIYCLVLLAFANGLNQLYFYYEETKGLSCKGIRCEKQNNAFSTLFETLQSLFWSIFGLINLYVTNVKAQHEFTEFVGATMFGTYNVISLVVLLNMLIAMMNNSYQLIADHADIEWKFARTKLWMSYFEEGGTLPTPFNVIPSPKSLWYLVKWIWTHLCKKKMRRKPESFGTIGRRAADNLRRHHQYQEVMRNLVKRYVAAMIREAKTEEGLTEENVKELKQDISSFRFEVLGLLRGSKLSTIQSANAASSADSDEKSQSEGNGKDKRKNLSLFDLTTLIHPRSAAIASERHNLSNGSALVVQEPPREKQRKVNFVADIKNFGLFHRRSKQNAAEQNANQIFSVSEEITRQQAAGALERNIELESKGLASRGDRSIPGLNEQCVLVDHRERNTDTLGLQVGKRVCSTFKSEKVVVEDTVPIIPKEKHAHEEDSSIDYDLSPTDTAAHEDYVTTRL
As to the kind of experiment: SAR Analysis for the identification of selective inhibits of the transient receptor potential cation channel C4 (TRPC4): Automated Electrophysiology. [Related pubchem assays (depositor defined):AID2256]. In kind it is functional.

Data set [16] deals with T4, Short transient receptor potential channel 4. Nature of the data set: mouse TRPC4 channel inhibitors, dose response, cell-based, HEK293 TRPC4/mu-opioid, Fluo-4 calcium (AID 434942).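 Also: potency of inhibitors blocking the TRPC4 calcium response.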 In kind it is functional.
The next data set has as its target Mu-type opioid receptor (Homo sapiens, UniProt P35372). As to the kind of experiment: HTS Image-Based Screen for Agonists of the MOR Receptor. [Related pubchem assays (depositor defined):AID1777, AID1785, AID1786, AID2133]. In kind it is functional.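 Also: imaging of beta-arrestin GFP recruitment into spots after receptor activation.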
The target of data set [17] is T5, Kappa-type opioid receptor (Homo sapiens, UniProt P41145). In kind it is functional.
T5 sequence (P41145 whole entry): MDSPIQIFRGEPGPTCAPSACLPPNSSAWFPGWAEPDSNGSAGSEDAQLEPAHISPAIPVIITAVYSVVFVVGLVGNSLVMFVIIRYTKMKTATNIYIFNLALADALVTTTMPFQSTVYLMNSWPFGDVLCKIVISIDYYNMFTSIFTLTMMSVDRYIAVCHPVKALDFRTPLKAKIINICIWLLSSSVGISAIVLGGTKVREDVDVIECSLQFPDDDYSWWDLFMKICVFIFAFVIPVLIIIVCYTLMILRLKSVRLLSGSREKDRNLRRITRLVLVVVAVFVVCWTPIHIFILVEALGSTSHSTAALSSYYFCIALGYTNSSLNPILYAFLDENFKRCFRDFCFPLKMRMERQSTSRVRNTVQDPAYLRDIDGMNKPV
Data set [18] has as its target T6, Delta-type opioid receptor (Homo sapiens, UniProt P41143). Nature of the data set: HTS Image-Based Screen for Antagonists of the DOR Receptor. [Related pubchem assays (depositor defined):AID1777, AID1785, AID1786, AID2133]. It is filed as functional.
For data set [19], the target named is T5, Kappa-type opioid receptor. In kind it is functional. The source holds these as a separate data set.
The target of data set [20] is T6, Delta-type opioid receptor. As to the kind of experiment: HTS Image-Based Screen for Agonists of the DOR Receptor. [Related pubchem assays (depositor defined):AID1777, AID1786, AID2133]. It is filed as functional.
Another data set deals with Cytochrome P450 2D6 (Homo sapiens, UniProt P10635).
Data set [21] addresses T7, Dual specificity protein phosphatase 3 (Homo sapiens, UniProt P51452). As to the kind of experiment: VHR1 phosphatase inhibitors, primary screen, biochemical, absorbance, uHTS (AID 1654).
Data set [22] addresses T8, Voltage-gated N-type calcium channel alpha-1B subunit/Amyloid beta A4 precursor protein-binding family A member 1 (Homo sapiens, UniProt Q00975+Q02410). It is filed as protein assay.
In data set [23] the target is T8, Voltage-gated N-type calcium channel alpha-1B subunit/Amyloid beta A4 precursor protein-binding family A member 1. It is filed as protein assay. The source holds these as a separate data set.
The target of data set [24] is T7, Dual specificity protein phosphatase 3. Nature of the data set: VHR1 phosphatase inhibitors, biochemical (AID 1878).
Data set [25] addresses T9, Dual specificity protein phosphatase 6 (Rattus norvegicus, UniProt Q64346).
T9 sequence (Q64346 whole entry): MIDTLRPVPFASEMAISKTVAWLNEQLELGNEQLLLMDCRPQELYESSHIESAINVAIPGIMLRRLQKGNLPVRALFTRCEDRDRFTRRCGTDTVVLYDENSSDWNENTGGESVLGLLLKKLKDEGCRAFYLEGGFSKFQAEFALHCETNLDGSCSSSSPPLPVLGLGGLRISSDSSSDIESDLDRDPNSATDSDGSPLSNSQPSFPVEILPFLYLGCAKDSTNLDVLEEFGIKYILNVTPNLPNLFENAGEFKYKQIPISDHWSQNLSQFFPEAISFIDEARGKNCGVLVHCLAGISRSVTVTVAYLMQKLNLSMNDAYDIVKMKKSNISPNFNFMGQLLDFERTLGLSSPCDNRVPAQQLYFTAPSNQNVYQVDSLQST
As to the kind of experiment: MKP-3 phosphatase inhibitors, primary screen, biochemical, rat enzyme, in vitro (AID 425).

Data set [26] has as its target T10, Carboxy-terminal domain RNA polymerase II polypeptide A small phosphatase 1 (Homo sapiens, UniProt Q9GZU7).
T10 sequence (Q9GZU7 whole entry): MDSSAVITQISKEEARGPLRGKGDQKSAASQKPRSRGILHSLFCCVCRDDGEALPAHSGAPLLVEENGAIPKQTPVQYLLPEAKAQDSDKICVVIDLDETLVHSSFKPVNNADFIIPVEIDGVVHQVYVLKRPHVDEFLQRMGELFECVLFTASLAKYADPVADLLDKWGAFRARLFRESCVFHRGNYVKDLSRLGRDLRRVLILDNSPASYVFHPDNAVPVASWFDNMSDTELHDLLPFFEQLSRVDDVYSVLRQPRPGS
As to the kind of experiment: inhibitors of CTDSP1, concentration-response testing, biochemical assay, absorbance-based, actives from ultra-high-throughput screening (AID 540297). It is filed as functional.

T8 sequence (Q00975 whole entry): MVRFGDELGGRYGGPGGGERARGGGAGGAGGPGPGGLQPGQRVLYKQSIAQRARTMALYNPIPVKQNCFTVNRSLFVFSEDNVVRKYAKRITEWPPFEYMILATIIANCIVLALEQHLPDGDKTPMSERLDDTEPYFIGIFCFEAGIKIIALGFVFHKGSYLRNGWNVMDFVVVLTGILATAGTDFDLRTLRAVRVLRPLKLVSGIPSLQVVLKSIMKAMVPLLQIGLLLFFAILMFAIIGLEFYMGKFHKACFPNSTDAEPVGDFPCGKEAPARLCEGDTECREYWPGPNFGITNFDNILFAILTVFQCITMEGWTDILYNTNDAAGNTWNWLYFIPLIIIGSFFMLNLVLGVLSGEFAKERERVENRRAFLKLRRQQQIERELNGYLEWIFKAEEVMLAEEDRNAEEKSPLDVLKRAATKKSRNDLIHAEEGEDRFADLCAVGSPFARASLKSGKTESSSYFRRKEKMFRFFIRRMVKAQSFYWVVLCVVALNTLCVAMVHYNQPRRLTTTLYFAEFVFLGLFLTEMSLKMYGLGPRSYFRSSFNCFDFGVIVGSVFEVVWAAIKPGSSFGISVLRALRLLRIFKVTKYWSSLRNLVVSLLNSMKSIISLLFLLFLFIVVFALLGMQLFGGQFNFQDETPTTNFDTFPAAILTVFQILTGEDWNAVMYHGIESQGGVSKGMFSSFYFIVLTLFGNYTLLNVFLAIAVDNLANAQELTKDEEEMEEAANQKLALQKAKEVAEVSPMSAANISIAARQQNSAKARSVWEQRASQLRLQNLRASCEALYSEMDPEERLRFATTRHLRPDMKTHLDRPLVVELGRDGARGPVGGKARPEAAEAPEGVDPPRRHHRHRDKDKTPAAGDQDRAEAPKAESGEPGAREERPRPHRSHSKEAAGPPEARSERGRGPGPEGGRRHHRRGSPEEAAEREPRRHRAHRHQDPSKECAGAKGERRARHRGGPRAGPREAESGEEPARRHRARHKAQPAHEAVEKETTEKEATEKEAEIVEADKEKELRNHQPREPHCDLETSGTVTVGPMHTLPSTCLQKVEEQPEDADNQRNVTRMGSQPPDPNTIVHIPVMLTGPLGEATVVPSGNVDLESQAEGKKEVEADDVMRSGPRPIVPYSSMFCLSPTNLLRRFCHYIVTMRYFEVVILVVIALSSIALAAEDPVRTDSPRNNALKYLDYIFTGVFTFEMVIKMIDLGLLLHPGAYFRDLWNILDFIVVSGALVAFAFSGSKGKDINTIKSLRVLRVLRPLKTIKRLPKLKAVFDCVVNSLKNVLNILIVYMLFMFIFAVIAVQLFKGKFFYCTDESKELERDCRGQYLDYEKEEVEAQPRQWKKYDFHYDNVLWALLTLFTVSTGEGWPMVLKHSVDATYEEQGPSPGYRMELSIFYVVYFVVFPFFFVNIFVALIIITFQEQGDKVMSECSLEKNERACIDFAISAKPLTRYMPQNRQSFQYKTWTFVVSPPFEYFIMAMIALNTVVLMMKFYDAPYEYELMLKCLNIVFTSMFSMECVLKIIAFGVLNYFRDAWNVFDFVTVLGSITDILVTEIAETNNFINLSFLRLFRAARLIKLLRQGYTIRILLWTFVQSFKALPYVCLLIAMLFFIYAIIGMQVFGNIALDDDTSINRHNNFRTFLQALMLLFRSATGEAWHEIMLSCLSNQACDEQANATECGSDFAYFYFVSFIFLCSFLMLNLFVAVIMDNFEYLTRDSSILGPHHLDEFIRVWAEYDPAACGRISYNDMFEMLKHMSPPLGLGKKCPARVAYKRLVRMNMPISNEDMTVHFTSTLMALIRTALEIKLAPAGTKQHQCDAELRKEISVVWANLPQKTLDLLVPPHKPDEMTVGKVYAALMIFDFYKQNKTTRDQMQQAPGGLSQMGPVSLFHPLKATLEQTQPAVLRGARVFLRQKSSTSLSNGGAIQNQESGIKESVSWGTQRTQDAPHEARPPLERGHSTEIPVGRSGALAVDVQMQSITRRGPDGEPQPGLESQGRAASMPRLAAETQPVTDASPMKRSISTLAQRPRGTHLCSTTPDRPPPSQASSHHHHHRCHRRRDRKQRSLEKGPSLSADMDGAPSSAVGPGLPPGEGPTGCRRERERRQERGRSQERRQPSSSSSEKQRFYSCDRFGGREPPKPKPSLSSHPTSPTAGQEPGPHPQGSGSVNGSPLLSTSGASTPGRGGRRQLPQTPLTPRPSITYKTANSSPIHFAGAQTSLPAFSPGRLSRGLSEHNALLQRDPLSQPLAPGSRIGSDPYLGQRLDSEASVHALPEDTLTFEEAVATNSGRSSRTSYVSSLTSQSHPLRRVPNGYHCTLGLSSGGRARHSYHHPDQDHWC
T8 sequence (Q02410 whole entry): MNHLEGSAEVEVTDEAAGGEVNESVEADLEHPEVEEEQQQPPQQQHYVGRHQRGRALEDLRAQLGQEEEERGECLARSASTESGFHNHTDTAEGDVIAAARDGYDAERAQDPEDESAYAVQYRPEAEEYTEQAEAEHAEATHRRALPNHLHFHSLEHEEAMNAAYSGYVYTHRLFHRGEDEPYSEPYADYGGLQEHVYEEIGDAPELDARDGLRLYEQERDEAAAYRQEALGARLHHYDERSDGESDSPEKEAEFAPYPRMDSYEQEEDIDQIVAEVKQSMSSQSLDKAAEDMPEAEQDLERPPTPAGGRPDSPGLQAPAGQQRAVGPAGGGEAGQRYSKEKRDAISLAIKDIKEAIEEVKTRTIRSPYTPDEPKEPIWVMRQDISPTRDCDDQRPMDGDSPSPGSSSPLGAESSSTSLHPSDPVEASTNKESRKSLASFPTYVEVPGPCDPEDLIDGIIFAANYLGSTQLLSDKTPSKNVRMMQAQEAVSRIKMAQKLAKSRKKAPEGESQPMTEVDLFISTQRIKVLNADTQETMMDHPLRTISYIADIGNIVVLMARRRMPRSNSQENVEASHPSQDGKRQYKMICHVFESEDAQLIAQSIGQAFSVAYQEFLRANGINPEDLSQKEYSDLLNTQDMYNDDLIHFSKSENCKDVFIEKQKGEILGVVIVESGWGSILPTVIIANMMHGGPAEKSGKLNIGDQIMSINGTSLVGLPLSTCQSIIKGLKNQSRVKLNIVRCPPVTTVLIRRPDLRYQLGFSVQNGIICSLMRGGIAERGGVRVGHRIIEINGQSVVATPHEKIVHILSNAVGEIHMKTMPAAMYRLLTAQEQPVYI
T7 sequence (P51452 whole entry): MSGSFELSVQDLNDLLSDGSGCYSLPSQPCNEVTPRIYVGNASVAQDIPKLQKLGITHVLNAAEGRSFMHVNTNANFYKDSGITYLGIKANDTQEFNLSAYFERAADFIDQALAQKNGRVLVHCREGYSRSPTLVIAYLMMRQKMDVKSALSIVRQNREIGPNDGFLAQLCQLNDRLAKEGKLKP
T6 sequence (P41143 whole entry): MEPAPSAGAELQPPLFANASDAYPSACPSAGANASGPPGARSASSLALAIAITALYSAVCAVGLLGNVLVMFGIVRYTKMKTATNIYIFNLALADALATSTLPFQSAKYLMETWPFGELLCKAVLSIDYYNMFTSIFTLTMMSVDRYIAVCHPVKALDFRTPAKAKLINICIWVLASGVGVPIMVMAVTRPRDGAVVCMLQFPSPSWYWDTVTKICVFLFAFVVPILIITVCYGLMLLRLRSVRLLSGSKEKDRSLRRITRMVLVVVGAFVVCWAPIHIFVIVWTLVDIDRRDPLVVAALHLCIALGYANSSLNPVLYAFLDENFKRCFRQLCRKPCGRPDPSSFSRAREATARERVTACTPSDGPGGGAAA

As for `Cc1nn(C(C)C)c(C)c1CN1CCC(C(=O)Nc2cccc(-c3cccc(F)c3)c2)CC1`, the IC50 (as a rule, the concentration that gives 50% inhibition) was 53 µM (active) in [1], 12 µM (active) in [4] and 7.53 µM (active) in data set [5]. For the same molecule, the EC50 – broadly, the concentration that produces a half-maximal response – was 30.4 µM (active) in data set [2] and 1.15 µM (active) in [3].
Turning to `Cc1ccccc1N1CCN(c2ncnc3c2cnn3Cc2ccc(Cl)cc2)CC1`, the figures for the IC50 in data set [6], in [9] and in data set [10] were 0.615 µM (active), > 32 µM (inactive) and > 32 µM (not active), respectively. In addition, in [7], the CC50 was > 40 µM (active). Further, the EC50 in data set [8] was 1.14 µM (active); in data set [11] it was 42.2 µM (active); in data set [12], 54.1 µM (active); in [13] it was 4.09 µM (active).
Regarding `Oc1ccc(-c2cn3cc(C(F)(F)F)ccc3n2)cc1`, the AC50 – broadly, the concentration giving half of the maximal activity seen – on CAAX prenyl protease 2 was 10.5 µM (active); at Trypsin it was 11.1 µM (active); on CAAX prenyl protease 1, 8.29 µM (active); in data set [14], 3.4 µM (active).
`N=C(NC1CCCCC1)c1ccc(Cl)cc1`: the IC50 in data set [15] is 4.56 µM (active). In addition, the concentration giving a half-maximal response (EC50) in data set [16] is 1.68 µM (active).
Take `O=C(c1ccc([N+](=O)[O-])cc1)N(Cc1ccc(Br)cc1)N1C(=O)CCCC1=O`: the EC50 is > 32 µM (inactive) at Mu-type opioid receptor, 3.55 µM in data set [17], above 35 µM in [19] and > 32 µM (inactive) in data set [20]. For the same molecule, the IC50 in [18] was > 32 µM (inactive).
Regarding `Cc1cc2c(s1)CCCCC(=O)N2`, at Cytochrome P450 2D6, the AC50 entry is recorded as “inconclusive”.
As to `COc1ccc(NC(=O)c2cc3c(COC(C)=O)cnc(C)c3o/c2=N\c2cccc(C(=O)O)c2)c(OC)c1`, the IC50 in data set [21] is 4.9 µM (active); in [22], 3.13 µM (active); in data set [23] it was > 50 µM (inactive); in data set [24], 1.53 µM (active); in [25] it was > 158 µM (not active); in data set [26], 0.737 µM (active).
